Data: article PMC6422671 (British Journal of Clinical Pharmacology, 2019)
Read-outs that look alike come from different tables or passages of the source.

Tests used:
[1] = Plasma pharmacokinetics after single oral dose, phase I; data geometric mean (coefficient of variation), t max median (range); format: in vivo, healthy men; conditions: for AUC(0-inf) / AUC(0-t) / Cmax / Tmax / Vd/F / half-life: male, human, plasma; for Tmax: median (range); for Vd/F: read-out: Vz/F
Description: Participants fasted overnight for at least 10 hours before dosing. […] Participants resided at the study centre until 48 hours postdose and attended a follow‐up visit 7–10 days after dosing.
This dose was selected by the Safety Review Committee based on all available data for one or more higher doses in part A. Participants once again resided at the study centre until 48 hours postdose and attended a follow‐up visit 7–10 days after dosing.
Blood samples were collected only up to 48 hours after dosing for the first cohort; the sampling schedule was amended thereafter to include the later time points. Samples for determination of AZD4831 in plasma were analysed by Covance Laboratories Ltd. (Harrogate, UK). […] This method was validated prior to sample analysis in the range 2–2000 nmol L^−1 in plasma, using a 25 μL sample aliquot.

[2] = Adverse event monitoring, phase I single dose
Description: Safety assessments included adverse event (AE) monitoring, vital signs monitoring (systolic and diastolic blood pressure, pulse rate), electrocardiography, physical examinations and laboratory assessments (haematology, clinical chemistry and urinalysis).
The pharmacokinetic analysis set included all participants in the safety analysis set with evaluable pharmacokinetic data and no major protocol deviations. Analyses were performed using Statistical Analysis System (SAS) software, version 9.4. Descriptive statistics were not presented if there were fewer than 3 values available.

[3] = Urinary pharmacokinetics after single oral dose, phase I; format: in vivo, healthy men; conditions: male, human, urine
Description: Urine was collected for pharmacokinetic analyses before dosing (spot sample) and 0–3, 3–6, 6–9, 9–12, 12–24, 24–36 and 36–48 hours after dosing (pooled samples). Samples for determination of AZD4831 in urine were analysed by Covance Laboratories Ltd. (Harrogate, UK). […] This method was validated prior to sample analysis in the range 20–20 000 nmol L^−1 in urine, using a 25 μL sample aliquot.

[4] = preclinical study in dogs; cited from earlier work
[5] = 45 mg after high-fat, high-calorie meal vs fasting

C[C@@H](N)c1cc(Cl)ccc1Cn1c(=S)[nH]c(=O)c2[nH]ccc21 [AZD4831]
delay of t max by food [1, 5]: 2.5 h | reduction of Cmax by food [1, 5]: 44% | effect of food on AUC0–∞ ([1]; 45 mg fed vs fasted): slightly reduced | effect of food on t 1/2λz ([1]; 45 mg fed vs fasted): slightly increased | AUC(0-inf) ([1]; oral, 5 mg, 5 mg fasted): 0.514 µM·h | AUC(0-t) ([1]; oral, 5 mg, 5 mg fasted): 0.294 µM·h | Cmax ([1]; oral, 5 mg, 5 mg fasted): 15 nM | Tmax ([1]; oral, 5 mg, 5 mg fasted): 1 h | Vd/F ([1]; oral, 5 mg, 5 mg fasted, n = 4): 1580 L | half-life ([1]; oral, 5 mg, 5 mg fasted, n = 4, read-out: t 1/2λz (converted)): 37.6 h | AUC(0-inf) ([1]; oral, 15 mg, 15 mg fasted): 1.67 µM·h | AUC(0-t) ([1]; oral, 15 mg, 15 mg fasted): 1.44 µM·h | Cmax ([1]; oral, 15 mg, 15 mg fasted): 83.4 nM | Tmax ([1]; oral, 15 mg, 15 mg fasted): 0.74 h | Vd/F ([1]; oral, 15 mg, 15 mg fasted): 1750 L | half-life ([1]; oral, 15 mg, 15 mg fasted, read-out: t 1/2λz (converted)): 45.2 h | AUC(0-inf) ([1]; oral, 45 mg, 45 mg fasted): 6.69 µM·h | AUC(0-t) ([1]; oral, 45 mg, 45 mg fasted): 6.13 µM·h | Cmax ([1]; oral, 45 mg, 45 mg fasted): 326 nM | Tmax ([1]; oral, 45 mg, 45 mg fasted): 0.51 h | Vd/F ([1]; oral, 45 mg, 45 mg fasted): 1450 L | half-life ([1]; oral, 45 mg, 45 mg fasted, read-out: t 1/2λz (converted)): 49.9 h | AUC(0-inf) ([1]; oral, 45 mg, 45 mg fed): 5.79 µM·h | AUC(0-t) ([1]; oral, 45 mg, 45 mg fed): 5.37 µM·h | Cmax ([1]; oral, 45 mg, 45 mg fed): 184 nM | Tmax ([1]; oral, 45 mg, 45 mg fed): 3 h | Vd/F ([1]; oral, 45 mg, 45 mg fed): 1940 L | half-life ([1]; oral, 45 mg, 45 mg fed, read-out: t 1/2λz (converted)): 58 h | Cmax ([1]; oral, 135 mg, 135 mg fasted): 1090 nM | Tmax ([1]; oral, 135 mg, 135 mg fasted): 0.74 h | Vd/F ([1]; oral, 135 mg, 135 mg fasted): 1450 L | half-life ([1]; oral, 135 mg, 135 mg fasted, read-out: t 1/2λz (converted)): 48.4 h | Cmax ([1]; oral, 405 mg, 405 mg fasted): 3040 nM | Tmax ([1]; oral, 405 mg, 405 mg fasted): 0.75 h | Vd/F ([1]; oral, 405 mg, 405 mg fasted): 1270 L | half-life ([1]; oral, 405 mg, 405 mg fasted, read-out: t 1/2λz (converted)): 38.1 h | half-life ([1]; po, single oral doses 5–405 mg fasted, range across doses, read-out: plasma half-life (t 1/2λz estimates)): 38.2 to 50 h | Any AE ([2]; 5 mg fasted n = 6): 2 (33.3) n (%) | Epistaxis ([2]; 5 mg fasted n = 6): 0 n (%) | Gastroenteritis ([2]; 5 mg fasted n = 6): 0 n (%) | Headache ([2]; 5 mg fasted n = 6): 0 n (%) | Nasopharyngitis ([2]; 5 mg fasted n = 6): 0 n (%) | Oropharyngeal pain ([2]; 5 mg fasted n = 6): 1 (16.7) n (%) | Rash maculopapular ([2]; 5 mg fasted n = 6): 0 n (%) | Restlessness ([2]; 5 mg fasted n = 6): 1 (16.7) n (%) | Rhinitis ([2]; 5 mg fasted n = 6): 0 n (%) | Any AE ([2]; 15 mg fasted n = 6): 2 (33.3) n (%) | Epistaxis ([2]; 15 mg fasted n = 6): 1 (16.7) n (%) | Gastroenteritis ([2]; 15 mg fasted n = 6): 0 n (%) | Headache ([2]; 15 mg fasted n = 6): 1 (16.7) n (%) | Nasopharyngitis ([2]; 15 mg fasted n = 6): 0 n (%) | Oropharyngeal pain ([2]; 15 mg fasted n = 6): 0 n (%) | Rash maculopapular ([2]; 15 mg fasted n = 6): 0 n (%) | Restlessness ([2]; 15 mg fasted n = 6): 0 n (%) | Rhinitis ([2]; 15 mg fasted n = 6): 0 n (%) | Any AE ([2]; 45 mg fasted n = 6): 3 (50.0) n (%) | Epistaxis ([2]; 45 mg fasted n = 6): 0 n (%) | Gastroenteritis ([2]; 45 mg fasted n = 6): 1 (16.7) n (%) | Headache ([2]; 45 mg fasted n = 6): 2 (33.3) n (%) | Nasopharyngitis ([2]; 45 mg fasted n = 6): 0 n (%) | Oropharyngeal pain ([2]; 45 mg fasted n = 6): 0 n (%) | Rash maculopapular ([2]; 45 mg fasted n = 6): 1 (16.7) n (%) | Restlessness ([2]; 45 mg fasted n = 6): 0 n (%) | Rhinitis ([2]; 45 mg fasted n = 6): 0 n (%) | Any AE ([2]; 45 mg fed n = 4): 0 n (%) | Epistaxis ([2]; 45 mg fed n = 4): 0 n (%) | Gastroenteritis ([2]; 45 mg fed n = 4): 0 n (%) | Headache ([2]; 45 mg fed n = 4): 0 n (%) | Nasopharyngitis ([2]; 45 mg fed n = 4): 0 n (%) | Oropharyngeal pain ([2]; 45 mg fed n = 4): 0 n (%) | Rash maculopapular ([2]; 45 mg fed n = 4): 0 n (%) | Restlessness ([2]; 45 mg fed n = 4): 0 n (%) | Rhinitis ([2]; 45 mg fed n = 4): 0 n (%) | Any AE ([2]; 135 mg fasted n = 6): 3 (50.0) n (%) | Epistaxis ([2]; 135 mg fasted n = 6): 0 n (%) | Gastroenteritis ([2]; 135 mg fasted n = 6): 0 n (%) | Headache ([2]; 135 mg fasted n = 6): 1 (16.7) n (%) | Nasopharyngitis ([2]; 135 mg fasted n = 6): 1 (16.7) n (%) | Oropharyngeal pain ([2]; 135 mg fasted n = 6): 0 n (%) | Rash maculopapular ([2]; 135 mg fasted n = 6): 1 (16.7) n (%) | Restlessness ([2]; 135 mg fasted n = 6): 0 n (%) | Rhinitis ([2]; 135 mg fasted n = 6): 0 n (%) | Any AE ([2]; 405 mg fasted n = 6): 2 (33.3) n (%) | Epistaxis ([2]; 405 mg fasted n = 6): 0 n (%) | Gastroenteritis ([2]; 405 mg fasted n = 6): 0 n (%) | Headache ([2]; 405 mg fasted n = 6): 0 n (%) | Nasopharyngitis ([2]; 405 mg fasted n = 6): 0 n (%) | Oropharyngeal pain ([2]; 405 mg fasted n = 6): 1 (16.7) n (%) | Rash maculopapular ([2]; 405 mg fasted n = 6): 2 (33.3) n (%) | Restlessness ([2]; 405 mg fasted n = 6): 0 n (%) | Rhinitis ([2]; 405 mg fasted n = 6): 1 (16.7) n (%) | maculopapular rash (moderate intensity), participants ([2]; all participants receiving AZD4831): 4/30 | maculopapular rash (moderate intensity), participants ([2]; all participants receiving AZD4831, n = 30): 13.3% | duration of maculopapular rash ([2]; in vivo): 5 to 9 days | time of report of maculopapular rash after dosing ([2]; in vivo): 7 to 9 days | Any AE ([2]; pooled AZD4831 fasted n = 30): 12 (40.0) n (%) | Epistaxis ([2]; pooled AZD4831 fasted n = 30): 1 (3.3) n (%) | Gastroenteritis ([2]; pooled AZD4831 fasted n = 30): 1 (3.3) n (%) | Headache ([2]; pooled AZD4831 fasted n = 30): 4 (13.3) n (%) | Nasopharyngitis ([2]; pooled AZD4831 fasted n = 30): 1 (3.3) n (%) | Oropharyngeal pain ([2]; pooled AZD4831 fasted n = 30): 2 (6.7) n (%) | Rash maculopapular ([2]; pooled AZD4831 fasted n = 30): 4 (13.3) n (%) | Restlessness ([2]; pooled AZD4831 fasted n = 30): 1 (3.3) n (%) | Rhinitis ([2]; pooled AZD4831 fasted n = 30): 1 (3.3) n (%) | serious AEs or deaths ([2]; whole study): no serious AEs or deaths occurred | CL renal ([3]; 5 mg, 5 mg fasted, geometric mean (CV), read-out: CLR (converted)): 252 mL/min | CL renal ([3]; 5 mg, 5 mg fasted, read-out: mean renal clearance (converted)): 257 mL/min | CL renal ([3]; 15 mg, 15 mg fasted, geometric mean (CV), read-out: CLR (converted)): 240 mL/min | CL renal ([3]; 45 mg, 45 mg fasted, geometric mean (CV), read-out: CLR (converted)): 162 mL/min | CL renal ([3]; 135 mg, 135 mg fasted, geometric mean (CV), read-out: CLR (converted)): 157 mL/min | CL renal ([3]; 405 mg, 405 mg fasted, geometric mean (CV), read-out: CLR (converted)): 132 mL/min | CL renal ([3]; 405 mg, 405 mg fasted, read-out: mean renal clearance (converted)): 148 mL/min | dose at which no adverse effects were observed [4]: 20 mg kg^−1 per day
